According to ChEMBL document CHEMBL5143711, “Glenthmycins A-M: Macrocyclic Spirotetronate Polyketide Antibacterials from the Australian Pasture Plant-Derived Streptomyces sp. CMB-PB041” (J Nat Prod, 2022):

Experiments:
Type in all cases: functional, organism-based
Staphylococcus aureus [1] = assay: Antibacterial activity against Staphylococcus aureus ATCC 25923 incubated for 16 to 24 hrs in presence of rifampin by broth microdilution based spectrophotometric analysis
Enterococcus faecalis [2] = assay: Antibacterial activity against Enterococcus faecalis incubated for 16 to 24 hrs in presence of rifampicin by broth microdilution based spectrophotometric analysis
Staphylococcus aureus [3] = assay: Antibacterial activity against Staphylococcus aureus ATCC 25923 incubated for 16 to 24 hrs in presence of ampicillin by broth microdilution based spectrophotometric analysis
Enterococcus faecalis [4] = assay: Antibacterial activity against Enterococcus faecalis incubated for 16 to 24 hrs in presence of ampicillin by broth microdilution based spectrophotometric analysis

IC50 (Staphylococcus aureus [1]) [µM] | IC50 (Enterococcus faecalis [2]) [µM] | IC50 (Staphylococcus aureus [3]) [µM] | IC50 (Enterococcus faecalis [4]) [µM] | SMILES
< 10 | < 10 | – | – | CC1(C)S[C@@H]2[C@H](NC(=O)[C@H](N)c3ccccc3)C(=O)N2[C@H]1C(=O)O [AMPICILLIN]
– | – | < 10 | < 10 | CO[C@H]1/C=C/O[C@@]2(C)Oc3c(C)c(O)c4c(O)c(c(/C=N/N5CCN(C)CC5)c(O)c4c3C2=O)NC(=O)/C(C)=C\C=C\[C@H](C)[C@H](O)[C@@H](C)[C@@H](O)[C@@H](C)[C@H](OC(C)=O)[C@@H]1C [RIFAMPIN]
